The results in this text go back to patent publication US5294701A, “Anthracycline compounds and intermediates” (Pharmachemie B.V., priority 1990, dated 1994).

≈ marks a conversion by molar mass, not a printed value. Structures can show the parent of a compound that is named as a salt. Where two headings read alike, the source gives them in different places.

Type in all cases: cell-based
Experiment [1] deals with A 204 rhabdomyosarcoma (A-cells). Description: Inhibition of growth of human tumour cell line A 204 in vitro (PIT method of van Lambalgen and Lelieveld). How it is done:
(§1) A number of compounds were examined with the following human tumour cell lines according to the method of R. van Lambalgen and P. Lelieveld, "The PIT method: and automated in vitro technique for drug toxicity testing", Invest. New Drugs 5, 161-165, 1987.
A 204 rhabdomyosarcoma (A-cells)
(§2) The cell lines where maintained in a continuous logarithmic culture in Dulbeco's medium supplemented with 10% fetal calf serum, penicillin (100 IU/ml) and streptomycin (100 μg/ml).
(§3) The ID50 values of the above compounds, expressed in ng/ml, where determined according to the abovementioned method of van Lambalgen and Lelieveld. The ID50 value is the amount which inhibits 50% of the cell growth.

The test system of experiment [2] is MCF-7 mammary carcinoma cells (M-cells). Description: Inhibition of growth of human tumour cell line MCF-7 in vitro (PIT method of van Lambalgen and Lelieveld). As to the method:
as §1
MCF-7 mammary carcinoma cells (M-cells)
as §2, §3

The subject of experiment [3] is T 24 bladder carcinoma cells (T-cells). The experiment can be described thus: Inhibition of growth of human tumour cell line T 24 in vitro (PIT method of van Lambalgen and Lelieveld). As to the method:
as §1
T 24 bladder carcinoma cells (T-cells)
as §2, §3

For experiment [4], the system named is WiDr colon tumour cells (W-cells). The experiment can be described thus: Inhibition of growth of human tumour cell line WiDr in vitro (PIT method of van Lambalgen and Lelieveld). As to conditions: read-out: ID50 values in ng/ml, WiDr (amount which inhibits 50% of the cell growth). How it is done:
as §1
WiDr colon tumour cells (W-cells)
as §2, §3

For experiment [5], the system named is IgR-37 melanoma cells (Z-cells). Description: Inhibition of growth of human tumour cell line IgR-37 in vitro (PIT method of van Lambalgen and Lelieveld). How it is done:
as §1
IgR-37 melanoma cells (Z-cells)
as §2, §3

[6] abbreviates: A204, read-out: ID50 values in ng/ml, A204 (amount which inhibits 50% of the cell growth).
Setting [7] is: MCF7, read-out: ID50 values in ng/ml, MCF-7 (amount which inhibits 50% of the cell growth).
The mark [8] stands for this setting: T24, read-out: ID50 values in ng/ml, T24 (amount which inhibits 50% of the cell growth).
Setting [9] is: IGR-37, read-out: ID50 values in ng/ml, IgR-37 (amount which inhibits 50% of the cell growth).
Setting [10] is: A204, A 204 rhabdomyosarcoma cells, read-out: ID50 values in ng/ml, A204 (amount which inhibits 50% of the cell growth).
[11] abbreviates: MCF7, MCF-7 mammary carcinoma cells, read-out: ID50 values in ng/ml, MCF-7 (amount which inhibits 50% of the cell growth).
Setting [12] is: T24, T 24 bladder carcinoma cells, read-out: ID50 values in ng/ml, T24 (amount which inhibits 50% of the cell growth).
Setting [13] is: IgR-37 melanoma cells, read-out: ID50 values in ng/ml, IgR-37 (amount which inhibits 50% of the cell growth).

For the compound `COc1cccc2c1C(=O)c1c(O)c3c(c(O)c1C2=O)C[C@@](O)(C(=O)CO)C[C@@H]3O[C@H]1C[C@H](N)[C@H](O)[C@H](C)O1` [Adramycin.HCl, Adriamycin, reference compound], the IC50 in experiment [1] (setting [6]) came to 4 ng/mL; in experiment [2] (setting [7]) it was 6 ng/mL; in experiment [3] (setting [8]) it was 18 ng/mL; in experiment [4] (WiDr) it was 16 ng/mL; in experiment [5] (setting [9]), 6 ng/mL.
Take `COc1cccc2c1C(=O)c1c(O)c3c(c(O)c1C2=O)C[C@@](O)(C(C)=O)C[C@@H]3O[C@H]1C[C@H](N)[C@H](O)[C@H](C)O1` [Daunomycin.HCl, Daunomycin, reference compound]: the IC50 in experiment [1] (setting [6]) amounted to 1 ng/mL; in experiment [2] (setting [7]), 1 ng/mL; in experiment [3] (setting [8]), 4 ng/mL; in experiment [4] (WiDr) it was 3 ng/mL; in experiment [5] (setting [9]), 1 ng/mL.
`COc1cc([C@@H]2c3cc4c(cc3[C@@H](O[C@@H]3O[C@@H]5CO[C@@H](C)O[C@H]5[C@H](O)[C@H]3O)[C@H]3COC(=O)[C@H]23)OCO4)cc(OC)c1O` [Etoposide, reference compound]: the IC50 amounted to 91 ng/mL (≈ 0.155 µM) in experiment [1] (setting [6]); 187 ng/mL (≈ 0.318 µM) in experiment [2] (setting [7]); 457 ng/mL (≈ 0.776 µM) in experiment [3] (setting [8]); 624 ng/mL (≈ 1.06 µM) in experiment [4] (WiDr); 427 ng/mL (≈ 0.725 µM) in experiment [5] (setting [9]).
Turning to `C#C[C@]1(O)Cc2c(O)c3c(c(O)c2[C@@H](O[C@H]2C[C@H](N)[C@H](O)[C@H](C)O2)C1)C(=O)c1ccccc1C3=O` [HRM01], the IC50 in experiment [1] (setting [10]) turned out to be 0.3 ng/mL (≈ 0.000626 µM); in experiment [2] (setting [11]), 1 ng/mL (≈ 0.00209 µM); in experiment [3] (setting [12]), 2 ng/mL (≈ 0.00417 µM); in experiment [4] (WiDr colon tumour cells) it was 4 ng/mL (≈ 0.00834 µM); in experiment [5] (setting [13]), 2 ng/mL (≈ 0.00417 µM).
On to `C[C@@H]1O[C@@H](O[C@H]2C[C@](O)(C#C[Si](C)(C)C)Cc3c(O)c4c(c(O)c32)C(=O)c2ccccc2C4=O)C[C@H](NC(=O)C(F)(F)F)[C@@H]1O` [HRM03], for which the IC50 in experiment [1] (setting [6]) came to 97 ng/mL (≈ 0.15 µM); in experiment [2] (setting [7]), 151 ng/mL (≈ 0.233 µM); in experiment [3] (setting [8]), 444 ng/mL (≈ 0.686 µM); in experiment [4] (WiDr), 156 ng/mL (≈ 0.241 µM); in experiment [5] (setting [9]), 146 ng/mL (≈ 0.225 µM).
As to `C#C[C@]1(O)Cc2c(O)c3c(c(O)c2[C@@H](O[C@H]2C[C@H](NC(=O)C(F)(F)F)[C@H](O)[C@H](C)O2)C1)C(=O)c1ccccc1C3=O` [HRM04], the IC50 stood at 14 ng/mL (≈ 0.0243 µM) in experiment [1] (setting [10]); 14 ng/mL (≈ 0.0243 µM) in experiment [2] (setting [11]); 75 ng/mL (≈ 0.13 µM) in experiment [3] (setting [12]); 43 ng/mL (≈ 0.0747 µM) in experiment [4] (WiDr colon tumour cells); 18 ng/mL (≈ 0.0313 µM) in experiment [5] (setting [13]).
As for `CC(=O)[C@@]1(O)Cc2c(O)c3c(c(O)c2[C@H](O[C@H]2C[C@H](N)[C@H](O)[C@H](C)O2)C1)C(=O)c1ccccc1C3=O` [HRM09, α-7.9-bis-epi-4-demethoxydaunomycin, reference compound], the IC50 in experiment [1] (setting [10]) was 302 ng/mL (≈ 0.607 µM); in experiment [2] (setting [11]) it was 745 ng/mL (≈ 1.5 µM); in experiment [3] (setting [12]) it was 1140 ng/mL (≈ 2.3 µM); in experiment [4] (WiDr colon tumour cells), 501 ng/mL (≈ 1.01 µM); in experiment [5] (setting [13]), 618 ng/mL (≈ 1.24 µM).
In the case of `C#C[C@@]1(O)Cc2c(O)c3c(c(O)c2[C@H](O[C@H]2C[C@H](N)[C@H](O)[C@H](C)O2)C1)C(=O)c1ccccc1C3=O` [HRM10], the IC50 is 243 ng/mL (≈ 0.507 µM) in experiment [1] (setting [10]); 420 ng/mL (≈ 0.876 µM) in experiment [2] (setting [11]); 728 ng/mL (≈ 1.52 µM) in experiment [3] (setting [12]); 372 ng/mL (≈ 0.776 µM) in experiment [4] (WiDr colon tumour cells); 469 ng/mL (≈ 0.978 µM) in experiment [5] (setting [13]).
Take `CC(=O)C1(O)Cc2c(O)c3c(c(O)c2C(O[C@H]2C[C@H](N)[C@H](O)[C@H](C)O2)C1)C(=O)c1cc(C)cnc1C3=O` (some centres unmarked) [HRM11]: the IC50 in experiment [1] (setting [10]) was found to be 45 ng/mL (≈ 0.0878 µM); in experiment [2] (setting [11]), 67 ng/mL (≈ 0.131 µM); in experiment [3] (setting [12]) it was 173 ng/mL (≈ 0.338 µM); in experiment [4] (WiDr colon tumour cells), 139 ng/mL (≈ 0.271 µM); in experiment [5] (setting [13]), 77 ng/mL (≈ 0.15 µM).
On the same counts, the results for `C#C[C@]1(O)Cc2c(O)c3c(c(O)c2[C@@H](O[C@H]2C[C@H](N)[C@H](O)[C@H](C)O2)C1)C(=O)c1c(OC)cccc1C3=O` [HRM12] are 21 ng/mL (≈ 0.0412 µM), 39 ng/mL (≈ 0.0765 µM), 140 ng/mL (≈ 0.275 µM), 87 ng/mL (≈ 0.171 µM) and 63 ng/mL (≈ 0.124 µM).
On the same counts, the results for `CC(=O)[C@]1(O)CC2=C(C(=O)c3c(O)ccc(O)c3C2=O)[C@@H](O[C@H]2C[C@H](N)[C@H](O)[C@H](C)O2)C1` [HRM13] are 729 ng/mL (≈ 1.63 µM), 542 ng/mL (≈ 1.21 µM), 1050 ng/mL (≈ 2.34 µM), 1420 ng/mL (≈ 3.18 µM) and 2440 ng/mL (≈ 5.46 µM).
On the same counts, the results for `CC(=O)C1(O)Cc2c(O)c3c(c(O)c2C(O[C@H]2C[C@H](N)[C@H](O)[C@H](C)O2)C1)C(=O)c1ncc(C)cc1C3=O` (some centres unmarked) [HRM15] are 171 ng/mL (≈ 0.334 µM), 334 ng/mL (≈ 0.652 µM), 949 ng/mL (≈ 1.85 µM), 779 ng/mL (≈ 1.52 µM) and 459 ng/mL (≈ 0.896 µM).
Turning to `C#C[C@]1(O)CC2=C(C(=O)c3c(O)ccc(O)c3C2=O)[C@@H](O[C@H]2C[C@H](N)[C@H](O)[C@H](C)O2)C1` [HRM16], the IC50 in experiment [1] (setting [10]) was 280 ng/mL (≈ 0.652 µM); in experiment [2] (setting [11]) it was 338 ng/mL (≈ 0.787 µM); in experiment [3] (setting [12]), 1260 ng/mL (≈ 2.94 µM); in experiment [4] (WiDr colon tumour cells) it was 2120 ng/mL (≈ 4.93 µM); in experiment [5] (setting [13]), 1940 ng/mL (≈ 4.51 µM).
